Source: BindingDB's records for doi:10.7270/Q2TX3CTT (Broad Institute, 2010)
Structures can show the parent of a compound that is named as a salt.

Target: Glycogen synthase kinase-3 beta (Homo sapiens, UniProt P49841)
Assay: concentration-response blocking of human GSK3B – biochemical, luminescence, cell-free homogeneous, retest, dose response (AID 434954)

Chain of Glycogen synthase kinase-3 beta (P49841 whole entry): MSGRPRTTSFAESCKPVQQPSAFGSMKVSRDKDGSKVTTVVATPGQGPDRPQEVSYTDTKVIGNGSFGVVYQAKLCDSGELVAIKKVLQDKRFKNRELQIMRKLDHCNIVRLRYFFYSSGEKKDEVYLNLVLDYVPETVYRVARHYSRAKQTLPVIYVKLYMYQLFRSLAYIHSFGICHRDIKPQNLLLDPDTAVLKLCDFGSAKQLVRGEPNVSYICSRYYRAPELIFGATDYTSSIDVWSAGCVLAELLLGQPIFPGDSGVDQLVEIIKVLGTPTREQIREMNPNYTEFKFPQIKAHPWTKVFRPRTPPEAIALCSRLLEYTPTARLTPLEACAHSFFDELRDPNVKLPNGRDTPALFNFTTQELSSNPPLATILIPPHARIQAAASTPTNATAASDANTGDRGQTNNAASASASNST

Compound	EC50 [µM]
CCCCCOc1ccc(C=NNC(=O)c2nnn(-c3nonc3N)c2CN2CCCCCC2)cc1 [1-(4-azanyl-1,2,5-oxadiazol-3-yl)-5-(azepan-1-ylmethyl)-N-[(4-pentoxyphenyl)methylideneamino]-1,2,3-triazole-4-carboxamide]	9.79
CC(=O)N1CCc2c(sc(NC(=O)C3CCCCC3)c2C(N)=O)C1 [2-(cyclohexylcarbonylamino)-6-ethanoyl-5,7-dihydro-4H-thieno[2,3-c]pyridine-3-carboxamide]	> 300
CCN(Cc1ccccc1)S(=O)(=O)c1ccc2c(c1)NC(=O)CC(=O)N2 [N-ethyl-2,4-dioxo-N-(phenylmethyl)-1,5-dihydro-1,5-benzodiazepine-7-sulfonamide]	59.6
COc1cccc(-c2ccc3nnc(SCC(=O)Nc4ccc(NC(C)=O)cc4)n3n2)c1 [N-(4-acetamidophenyl)-2-[[6-(3-methoxyphenyl)-[1,2,4]triazolo[4,3-b]pyridazin-3-yl]sulfanyl]ethanamide]	> 300
C=CCC1(CC=C)CCCN1C(=O)C1CCC(=O)N(CCc2ccc(OC)cc2)C1 (stereo unspecified) [MLS001072450]	> 300
CN1CCc2c(sc(NC(=O)Cc3ccc(F)cc3)c2C(N)=O)C1 [SMR000641824]	> 300
COCCNc1nc(SC)nc2sc3c(c12)CCN(C)C3 [N-(2-methoxyethyl)-7-methyl-2-methylsulfanyl-6,8-dihydro-5H-pyrido[4,5]thieno[1,2-c]pyrimidin-4-amine]	198
COc1ccc(C(=O)c2sc(Nc3ccc(NC(C)=O)cc3)nc2C)cc1 [N-{4-[5-(4-Methoxy-benzoyl)-4-methyl-thiazol-2-ylamino]-phenyl}-acetamide]	> 300
CCc1nnc(NC(=O)c2ccc3c(=O)n4c(nc3c2)CCCCC4)s1 [MLS001007070]	> 300
NC(=O)c1c(NC(=O)CN2CCCC2)sc2c1CCCC2 [2-(2-Pyrrolidin-1-yl-acetylamino)-4,5,6,7-tetrahydro-benzo[b]thiophene-3-carboxylic acid amide]	> 300
COc1ccc2nc(C)cc(Nc3ccc(N4CCN(C)CC4)cc3)c2c1	> 300
COc1cc(CN=O)ccc1Oc1ccc([N+](=O)[O-])cc1[N+](=O)[O-] [N-[[4-(2,4-dinitrophenoxy)-3-methoxyphenyl]methylidene]hydroxylamine]	> 300
COc1ccc(OC)c(Nc2oc3cc(=O)ccc-3cc2C(N)=O)c1 [2-[(Z)-2,5-Dimethoxy-phenylimino]-7-hydroxy-2H-chromene-3-carboxylic acid amide]	11.9
Cc1ccc2c(c1)NC(=O)c1cc([N+](=O)[O-])ccc1O2 [8-methyl-2-nitrodibenzo[b,f][1,4]oxazepin-11(10H)-one]	> 300
O=C1Nc2cc(C(=O)NCCN3CCCCCC3)ccc2S/C1=C\c1ccccc1 [SMR000635247]	> 300
c1csc(CN=Nc2ncnc3nc[nH]c23)c1 [MLS000419130]	19.7
COc1cc(C(=O)NC(=S)N(CCc2ccccc2)CCc2ccccc2)cc(OC)c1OC [N-[bis(2-phenylethyl)carbamothioyl]-3,4,5-trimethoxybenzamide]	> 300
Cc1ccc(OCCn2c(S)nc3c(N)ncnc32)cc1 [MLS000765129]	> 300
CC1CCCCC1NC(=O)CN(C)S(=O)(=O)c1cccc2cccnc12 (stereo unspecified) [N-(2-methylcyclohexyl)-2-[methyl(quinolin-8-ylsulfonyl)amino]acetamide]	> 300
CC(=O)Oc1cccc(N2C(=O)c3ccc(C(=O)Nc4cccnc4)cc3C2=O)c1 [SMR000306801]	> 300
O=C(C[n+]1ccc(C=Cc2ccccc2)cc1)c1ccc2c(c1)OCCO2	125
O=C1NC(=O)c2c(NC(=O)C3CCCO3)cccc21 (stereo unspecified) [MLS000064410]	> 300

Compound	EC50 [µM]
CC(NCCC(Cc1ccccc1)c1ccco1)c1ccccc1 (stereo unspecified) [SMR000294034]	> 300
CC(C)Nc1nc(-c2ccncc2)nc(-c2ccccc2)c1C#N [SMR000549424]	> 300
Cc1nnc2n(-c3ccccc3)c(=O)c3c4c(sc3n12)CCCC4 [MLS000071277]	> 300
CC(C)=CCc1c(O)ccc2c1OC(c1ccc(O)c(O)c1)CC2=O (stereo unspecified) [2-(3,4-dihydroxyphenyl)-7-hydroxy-8-(3-methylbut-2-enyl)-2,3-dihydrochromen-4-one]	4.58
COc1ccc(C=C2SC(Nc3ccccc3OC)=NC2=O)cc1 [SMR000517219]	> 300
Nc1nonc1-n1nnc(C(=O)NN=Cc2ccccc2F)c1CN1CCc2ccccc21 [MLS001075096]	22.5
Clc1ccc(CSc2nnc(-c3ccncc3)o2)cc1 [2-[(4-chlorobenzyl)thio]-5-(4-pyridyl)-1,3,4-oxadiazole]	25.9
COc1ccc(CNC(=O)CN(Cc2cccs2)C(=O)CCC(=O)Nc2ccccn2)cc1 [MLS000687650]	13.4
O=[N+]([O-])c1cc(/C=N/n2cnnc2)ccc1N1CCCC1 [1-[3-nitro-4-(1-pyrrolidinyl)phenyl]-N-(1,2,4-triazol-4-yl)methanimine]	> 300
COc1ccc(-n2c(=O)c3c4c(sc3n3c(=S)[nH]nc23)CCC4)cc1 [1-Mercapto-4-(4-methoxy-phenyl)-7,8-dihydro-4H,6H-9-thia-2,3,4,9b-tetraaza-cyclopenta[b]-as-indace n-5-one]	61.7
COc1ccc(Cl)cc1-n1c(C)ccc1C [MLS000680869]	> 300
C=CCN1C(=O)NC(=O)/C(=C/c2ccc(OCC(=O)Nc3ccc(C)cc3)cc2)C1=O [SMR000673044]	> 300
COc1cccc2cc(C(=O)N(C)C)c(=O)oc12 [8-methoxy-N,N-dimethyl-2-oxo-1-benzopyran-3-carboxamide]	> 300
COc1ccc(C(=O)ON=C(C)c2ccccc2)cc1 [SMR000159704]	20.9
Cc1ccc(N(c2ncnc(N)c2[N+](=O)[O-])C2CCCCC2)cc1 [N-cyclohexyl-N-(4-methylphenyl)-5-nitro-4,6-pyrimidinediamine]	> 300
COC(=O)COc1ccc2occ(C(C)=O)c2c1	> 300
Nc1nc(N)nc(-c2cc(Cl)ccc2Cl)n1 [SMR000471621]	> 300
Cc1ccc(SCC(=O)N2CC(C)OC(C)C2)cc1 (stereo unspecified)	> 300
C=CCNc1nc(N)c([N+](=O)[O-])c(NC2CCCCC2)n1 [4-N-cyclohexyl-5-nitro-2-N-prop-2-enylpyrimidine-2,4,6-triamine]	5.45
Fc1ccccc1CSc1nnc(-c2ccccc2)o1 [MLS000063511]	> 300
CN(C)c1ccc(C=NNC(=O)c2nnn(-c3nonc3N)c2CN2CCCCCC2)cc1 [1-(4-amino-1,2,5-oxadiazol-3-yl)-5-(1-azepanylmethyl)-N-[[4-(dimethylamino)phenyl]methylideneamino]-4-triazolecarboxamide]	> 300
Cc1nc(Nc2ccc(S(N)(=O)=O)cc2)sc1C(=O)Nc1ccccc1 [4-methyl-N-phenyl-2-(4-sulfamoylanilino)-5-thiazolecarboxamide]	> 300

Compound	EC50 [µM]
CCOC(=O)C1CCN(CC(O)COC(CC)c2ccccc2)CC1 (stereo unspecified) [ethyl 1-[2-oxidanyl-3-(1-phenylpropoxy)propyl]piperidine-4-carboxylate;hydrochloride]	> 300
N#CCCn1cc(C(=O)O)c(-c2cccc([N+](=O)[O-])c2)n1 [SMR000372597]	> 300
COc1cccc(C(=O)NCC(c2ccco2)N2CCc3ccccc3C2)c1 (stereo unspecified) [N-[2-(3,4-dihydro-1H-isoquinolin-2-yl)-2-(furan-2-yl)ethyl]-3-methoxy-benzamide]	> 300
COC(=O)c1ccc(O)cc1	> 300
CC(C)C(=O)NC(C)C(c1cccs1)N1CCN(c2ccccc2)CC1 (stereo unspecified) [SMR000016589]	> 300
O=c1cc(O)cc2oc(-c3ccc(O)c(O)c3)c(O[C@@H]3O[C@H](CO)[C@@H](O)[C@H](O)[C@H]3O)c(O)c1-2 [Quercetin 3-O-beta-D-glucoside]	15.8
Cc1nc(NCCCn2ccnc2)c2ccccc2n1 [N-(3-imidazol-1-ylpropyl)-2-methyl-quinazolin-4-amine;hydrochloride]	> 300
c1csc(C2=Nn3c(nnc3-c3ccncc3)SC2)c1	0.735
O=C(Nc1ccccc1)Nc1cnccn1 [MLS001229949]	> 300
Nc1nc(Nc2cccc(F)c2)nc(N2CCOCC2)c1[N+](=O)[O-] [2-N-(3-fluorophenyl)-6-morpholin-4-yl-5-nitropyrimidine-2,4-diamine]	> 300
O=C(CCSCCc1ccccn1)Nc1cc(F)ccc1F [N-(2,5-difluorophenyl)-3-(2-pyridin-2-ylethylsulfanyl)propanamide]	> 300
Cc1cccc(/C=C2/Sc3ccc(C(=O)NCCN4CCCC4)cc3NC2=O)c1 [(2E)-2-[(3-methylphenyl)methylidene]-3-oxidanylidene-N-(2-pyrrolidin-1-ylethyl)-4H-1,4-benzothiazine-6-carboxamide]	6.28
NC(=O)C1CCN(c2nc3c(S(=O)(=O)c4ccccc4)nnn3c3ccccc23)CC1 [SMR000629006]	> 300
CCC(N=C(S)NC1CCCCC1)c1ccccc1 (stereo unspecified) [SMR000678367]	> 300
COc1cc2[nH]c(=O)n3nc(-c4ccccc4)nc3c2cc1OC [8,9-dimethoxy-2-phenyl[1,2,4]triazolo[1,5-c]quinazolin-5(6H)-one]	5.34
COc1ccc(Nc2nc(N)c([N+](=O)[O-])c(NCc3ccccc3)n2)cc1 [MLS000332775]	10.1
Cc1ccc(CSc2ccc(-c3cccs3)nn2)cc1 [3-[(4-methylphenyl)methylsulfanyl]-6-thiophen-2-ylpyridazine]	> 300
Cc1ccc(-n2c(N)c(C(=O)NCc3cccnc3)sc2=S)cc1 [MLS000535145]	> 300
Cc1ccc2nc(-c3ccc4c(c3)NC(=O)CO4)cn2c1 [6-(6-methyl-2-imidazo[1,2-a]pyridinyl)-4H-1,4-benzoxazin-3-one]	> 300
CNC(=O)c1ccccc1NC(=O)c1cccc(S(=O)(=O)N2CCC(C)CC2)c1 [N-methyl-2-({3-[(4-methylpiperidin-1-yl)sulfonyl]benzoyl}amino)benzamide]	> 300
CCN1CCN(CCCNC(=O)c2ccc3c(c2)NC(=O)/C(=C\c2cccc(C)c2)S3)CC1 [(2E)-N-[3-(4-ethyl-1-piperazinyl)propyl]-2-[(3-methylphenyl)methylidene]-3-oxo-4H-1,4-benzothiazine-6-carboxamide]	16.1
O=C(O)c1cccc(Nc2ccnc(Nc3cccc(C(=O)O)c3)n2)c1 [MLS001213333]	> 300
